Structures are written as SMILES.

Assay [1] deals with K562 cells, a human proerythroblast cell line. As to the kind of experiment: Hemoglobin production in K562 cells (fluorescence of the porphyrin ring). In kind it is cell-based. To be noted: for enhancement of hemoglobin production: drug concentration 20 μM; for activity at 6 µM: Homo sapiens, K562, 144 h, 6 μM test compound, 3 + 3 days incubation, non-stimulated state without compound = 100, read-out: amount of hemoglobin, % of control (6 μM). As to the method: K562 cells (obtained from ATCC), which is a human proerythroblast cell line, were inoculated at a concentration of 1×10^5 cells/1 mL in each well of a 24-well plate, using complete medium (RPMI-1640 medium containing 10% bovine fetal serum), and 1 μL of a test compound at a 1000-fold concentration was added to each well. Subsequently, the cells were incubated for 3 days in a CO2 incubator (37° C., 5% CO2). The medium was exchanged, and the cells were further incubated for 3 days. The cells were collected and counted. Subsequently, the amount of hemoglobin produced in the cells was determined by adjusting the number of cells to 3×10^5 cells, and measuring the fluorescence of the porphyrin ring. That is, the cells collected by centrifugation were suspended in 500 μL of 2 M oxalic acid, and were heated to boil for 30 minutes. The cells were cooled, and then the fluorescence intensity was measured by using a fluorescence microplate reader (Spectra MAX GeminiEM; Molecular Devices Corp.) ([…]). The amount of hemoglobin in a non-stimulated state where no compound was added was designated as 100-, and the amount of hemoglobin (% of control) produced as induced by each of the compounds was determined.

Assay [2] relates to HepG2 cells derived from human liver cancer. As to the kind of experiment: EPO production in HepG2 cells (EPO ELISA of culture supernatant). In kind it is cell-based. The settings on record: for activity at 3 µM: HepG2, 3 μM test compound, 48 hrs, 4% oxygen, non-stimulated state without compound = 100%, read-out: amount of EPO production, % of control (3 μM). As for the experimental part: HepG2 cells derived from human liver cancer were inoculated in an amount of 5×10^4 cells per well on a 48-well plate, using minimum essential medium (MEM, Sigma-Aldrich Company) containing 10% bovine fetal serum. On the next day, the medium was exchanged with Dulbecco's modified eagle medium (DMEM (Sigma-Aldrich Company)) containing 10% bovine fetal serum without Phenol Red. Then, a test compound dissolved in DMSO was added thereto to obtain a final concentration of 3 μM or 10 μM, and the amount of medium was adjusted to 400 μL per well. The cells were incubated for 48 hrs in a CO2 incubator in which the oxygen concentration was adjusted to 4%, and then the culture supernatant was collected. The EPO concentration in the culture supernatant was immediately measured using an EPO ELISA kit (Roche Diagnostics GmbH). The method was carried out according to the operation manual.
The amount of EPO production in a non-stimulated state where no compounds were added, was designated as 100%, and the amount of EPO production (% of control) induced by each of the compounds was determined.

`CC(=O)N1c2c(F)cccc2[C@H](Nc2ccccc2F)C[C@@H]1C` (relative stereo) [Compound 4, 1-Acetyl-8-fluoro-4-[(2-fluoro-phenyl)amino]-2-methyl-1,2,3,4-tetrahydroquinoline]: the “enhancement of hemoglobin production” value in assay [1] is on record as 162%.
Still for that read-out and setting: in the case of `CC(=O)N1c2ccccc2[C@H](OCc2ccccc2)C[C@@H]1C` (relative stereo) [Compound 36, 1-Acetyl-2-methyl-4-benzyloxy-1,2,3,4-tetrahydroquinoline] it was 143%; in that of `CC(=O)N1c2ccc(C(N)=O)cc2[C@H](Nc2ccc(NS(C)(=O)=O)cc2)C[C@@H]1C` (relative stereo) [Compound 102, 1-Acetyl-4-[(4-methanesulfonyl-aminophenyl)amino]-2-methyl-1,2,3,4-tetrahydroquinoline-6-carbox-amide], 115%.
Consider `CC(=O)N1c2ccc(C(=O)O)cc2C(Nc2ccc(Cl)cc2)CC1C` (stereo not drawn) [Compound 42, 1-Acetyl-4-[(4-chlorophenyl)-amino]-2-methyl-1,2,3,4-tetrahydro-quinoline-6-carboxylic acid], for which, in assay [2] (final concentration 10 μM, non-stimulated state = 100%), the “enhancement of EPO production” value was 138%.
`CC(=O)N1c2c(Br)cccc2C(Nc2ccccc2)CC1C` (stereo not drawn) [Compound 63, 1-Acetyl-8-bromo-4-phenylamino-2-methyl-1,2,3,4-tetrahydroquino-line]: the “enhancement of hemoglobin production” value in assay [1] is recorded as 260%.
The same measure, in the same setting: in the case of `CC(=O)N1c2ccc(NS(C)(=O)=O)cc2C(Nc2ccc(N3CCOCC3)cc2)CC1C` (stereo not drawn) [Compound 98, 1-Acetyl-6-methanesulfonylamino-2-methyl-4-[(4-morpholinophenyl)-amino]-1,2,3,4-tetrahydroquin-oline] it was 142%; in that of `CCOC(=O)Cc1ccc(NC2CC(C)N(C(C)=O)c3ccc(NS(C)(=O)=O)cc32)cc1` (stereo not drawn) [Compound 99, 1-Acetyl-6-methanesulfonylamino-2-methyl-4-[(4-ethoxycarbonyl-methylphenyl)amino]-1,2,3,4-tetra-hydroquinoline], 306%.
On to `CC(=O)N1c2ccc(N3CC(C)OC(C)C3)cc2C(Nc2ccc(NS(C)(=O)=O)cc2)CC1C` (stereo not drawn) [Compound 110, 1-Acetyl-6-[(2,6-dimethyl)-morpholino]-4-[(4-methanesulfonylaminophenyl)-amino]-2-methyl-1,2,3,4-tetrahydroquinoline], for which the activity at 3 µM in assay [2] (Homo sapiens) was found to be 207%.
On to `CC(=O)N1c2ccc(N3CCN(C(=O)C(C)C)CC3)cc2C(Nc2ccc(NS(C)(=O)=O)cc2)CC1C` (stereo not drawn) [Compound 111, 1-Acetyl-6-[(4-isopropylcarbonyl)-piperazino]-4-[(4-methanesulfonyl-aminophenyl)amino]-2-methyl-1,2,3,4-tetrahydroquinoline], for which the “enhancement of hemoglobin production” value in assay [1] is on record as 171%.
For `CC(=O)N1c2ccc(C(=O)NCCO)cc2C(Nc2ccc(Cl)cc2)CC1C` (stereo not drawn) [Compound 126, 1-Acetyl-4-[(4-chlorophenyl)-amino]-N-(2-hydroxyethyl)-2-methyl-1,2,3,4-tetrahydroquinoline-6-carboxamide], the activity at 6 µM in assay [1] stood at 124%. For the same molecule, the activity at 3 µM in assay [2] (Homo sapiens) came to 161%.
`CC(=O)N1c2ccc(-c3cnc(C)[nH]3)cc2C(Nc2ccc(Cl)cc2)CC1C` (stereo not drawn) [Compound 127, 4-{1-Acetyl-4-[(4-chlorophenyl)-amino]-2-methyl-1,2,3,4-tetra-hydroquinolin-6-yl}-2-methyl-1H-imidazole]: the activity at 10 µM in assay [2] (Homo sapiens, HepG2, 48 h, final concentration 10 μM, non-stimulated state = 100%, read-out: enhancement of EPO production) was found to be 130%. The activity at 3 µM in assay [2] (Homo sapiens) worked out at 96%.
In the case of `CC(=O)N1c2ccc(C(=O)NC#N)cc2C(Nc2ccc(Cl)cc2)CC1C` (stereo not drawn) [Compound 128, 1-Acetyl-4-[(4-chlorophenyl)-amino]-N-cyano-2-methyl-1,2,3,4-tetrahydroquinoline-6-carboxamide], the activity at 6 µM in assay [1] is 120%. Moreover, the activity at 3 µM in assay [2] (Homo sapiens) was determined as 176%.
Taken in the same sequence, the figures for `CC(=O)N1c2ccc(C(=O)NO)cc2C(Nc2ccc(Cl)cc2)CC1C` (stereo not drawn) [Compound 129, 1-Acetyl-4-[(4-chlorophenyl)-amino]-N-hydroxy-2-methyl-1,2,3,4-tetrahydroquinoline-6-carboxamide] were 136% and 125%.
For `CC(=O)N1c2ccc(C(=O)Nc3ccccc3)cc2C(Nc2ccc(Cl)cc2)CC1C` (stereo not drawn) [Compound 130, 1-Acetyl-4-[(4-chlorophenyl)-amino]-2-methyl-N-phenyl-1,2,3,4-tetrahydroquinoline-6-carboxamide] the same measures were 172% and 133%.
As to `CC(=O)N1c2ccc(C(=O)Nc3cccnc3)cc2C(Nc2ccc(Cl)cc2)CC1C` (stereo not drawn) [Compound 131, 1-Acetyl-4-[(4-chlorophenyl)-amino]-2-methyl-N-(3-pyridyl)-1,2,3,4-tetrahydroquinoline-6-carboxamide], in assay [1], the activity at 6 µM is 263%. Besides, the activity at 3 µM in assay [2] (Homo sapiens) worked out at 153%.
For `CNC(=O)c1ccc2c(c1)C(Nc1ccc(N3CCOCC3)cc1)CC(C)N2C(C)=O` (stereo not drawn) [Compound 132, 1-Acetyl-4-[(4-morpholinophenyl)-amino]-N,2-dimethyl-1,2,3,4-tetrahydroquinoline-6-carboxamide] the same measures were 198% and 208%.
Consider `CC(=O)N1c2ccc(C(=O)O)cc2C(Oc2ccc(N3CCOCC3)cc2)CC1C` (stereo not drawn) [Compound 139, 1-Acetyl-2-methyl-4-(4-morpho-linophenoxy)-1,2,3,4-tetrahydro-quinoline-6-carboxylic acid], for which the activity at 6 µM in assay [1] came to 193%.
Same read-out and setting: in the case of `CC(=O)N1c2ccc(C(=O)O)cc2C(Oc2ccc(Cl)cc2)CC1C` (stereo not drawn) [Compound 141, 1-Acetyl-4-(4-chlorophenoxy)-2-methyl-1,2,3,4-tetrahydro-quinoline-6-carboxylic acid] it was 209%.
With `CC(=O)N1c2ccc(C(=O)NCCOCCOCCOCCC(=O)OC(C)(C)C)cc2C(Nc2ccc(Cl)cc2)CC1C` (stereo not drawn) [Compound 148, Tert-butyl 12-{1-Acetyl-4-[(4-chlorophenyl)-amino]-2-methyl-1,2,3,4-tetrahydroquinoline-6-carboxamido}-4,7,10-trioxadodecanoate], the activity at 6 µM in assay [1] was determined as 506%.
The same measure, in the same setting: in the case of `COC(=O)CCCc1ccc(NC(=O)c2ccc3c(c2)C(Nc2ccc(Cl)cc2)CC(C)N3C(C)=O)cc1` (stereo not drawn) [Compound 150, Methyl 4-{4-{1-Acetyl-4-[(4-chlorophenyl)-amino]-2-methyl-1,2,3,4-tetrahydroquinoline-6-carboxamido}-phenyl}butanoate] it was 534%.
The same measure, in the same setting: in the case of `CCOC(=O)c1ccc2c(c1)C(Nc1ccc(C3CCOCC3)cc1)CC(C)N2C(C)=O` (stereo not drawn) [Compound 153, Ethyl 1-acetyl-2-methyl-4-{[4-(tetrahydro-2H-pyran-4-yl)-phenyl]amino}-1,2,3,4-tetrahydroquinoline-6-carboxylate] it was 294%.
On the same count and under the same terms, in the case of `CNC(=O)c1ccc2c(c1)C(Nc1ccc(C3CCOCC3)cc1)CC(C)N2C(C)=O` (stereo not drawn) [Compound 155, 1-Acetyl-N,2-dimethyl-4-{[4-(tetrahydro-2H-pyran-4-yl)phenyl]amino}-1,2,3,4-tetrahydroquino-line-6-carboxamide] it was 387%; in that of `CC(=O)N1c2ccc(C(N)=O)cc2C(Nc2ccc(C3CCOCC3)cc2)CC1C` (stereo not drawn) [Compound 156, 1-Acetyl-2-methyl-4-{[4-(tetrahydro-2H-pyran-4-yl)phenyl]amino}-1,2,3,4-tetrahydroquinoline-6-carboxamide], 371%.
Regarding `CC(=O)N1c2ccc(N3CCN(C(C)C)CC3)cc2C(Nc2ccc(N3CCOCC3)cc2)CC1C` (stereo not drawn) [Compound 159, 1-Acetyl-6-(4-isopropylpiperazin-1-yl)-2-methyl-4-[(4-morpholinophenyl)-amino]-1,2,3,4-tetrahydroquinoline], the activity at 3 µM in assay [2] (Homo sapiens) amounted to 292%.
The same measure, in the same setting: in the case of `CNC(=O)c1ccc2c(c1)C(Nc1ccc(-c3ncco3)cc1)CC(C)N2C(C)=O` (stereo not drawn) [Compound 170, 1-Acetyl-N,2-dimethyl-4-{[4-(oxazol-2-yl)phenyl]-amino}-1,2,3,4-tetrahydroquinoline-6-carboxamide] it was 128%.
Consider `CNC(=O)c1ccc2c(c1)C(Nc1cccc(N3CCOCC3)c1)CC(C)N2C(C)=O` (stereo not drawn) [Compound 180, 1-Acetyl-N,2-dimethyl-4-[(3-morpholinophenyl)amino]-1,2,3,4-tetrahydroquinoline-6-carboxamide], for which the activity at 6 µM in assay [1] came out at 150%.

For the origin of these results see patent US9045423B2, “Prophylactic and/or therapeutic agent for anemia comprising tetrahydroquinoline compound as active ingredient” (KOWA COMPANY, LTD., priority 2009, dated 2015).
